Experimental data from patent US20260069693A1, “UROLITHINS AND T-CELL MEDIATED IMMUNE RESPONSE” (priority 2022, published 2026).

Columns and labels:
Splenic murine T cells = experiment: aCD3/aCD28 stimulation of murine T cells in presence of UA, flow cytometry; type: cell-based
Description: Mitochondrial remodelling has been previously associated with alterations in T cell fate (Buck et al., 2016; Yu et al., 2020b). Given the observed dependency of the UA effect on CD8^+ T cells, the inventors wondered whether UA may also directly affect T cell fate commitment. Purified T cells from FVB mice were stimulated with aCD3/aCD28 beads to induce T cell differentiation into effector T cell subsets in the presence or absence of UA for up to 72 hours (FIG. 2A). […] Previously, a rare naïve-like subset of T cells with enhanced stemness capabilities, termed T memory stem cells (TSCM) has been identified (Gattinoni et al., 2009). TSCM are marked by extreme longevity, their ability to self-renew, and potential for immune reconstitution (Gattinoni et al., 2017) which translates into potent anti-tumor immunity. Phenotypically, TSCM represent a subset of minimally differentiated T cells, which share a CD44^loCD62L^hi phenotype with naïve T cells, but are phenotypically distinct by expressing high levels of Sca1 (Gattinoni et al., 2009). […] This was associated with reduced cyclin D1 expression (not shown), in line with previous observations that link TSCM reprogramming to halted proliferation (Gattinoni et al., 2009; Verma et al., 2021).
Splenic murine T cells were isolated from mice aged 6-20 weeks by negative selection with EasySep mouse T cell isolation kit (Stem cell) according to the manufacturer's instructions. To monitor T cell proliferation, purified T cells were loaded with CellTrace Violet (C34557 ThermoFisher Scientific). T cell activation was initiated using αCD3/CD28 activation beads (11456D; ThermoFisher Scientific) at a ratio of 25 μl dynabeads per 0.5×10^6 T-cells. Cells were activated with 25-50 μM Urolithin A (Tocris) or DMSO in T cell activation Medium (RPMI (ThermoFisher Scientific) 10% FBS (South America origin), 10 mM Hepes (Sigma), 1× Non-Essential Amino Acid, 1 mM Sodium Pyruvate, 50 μM B-Mercaptoethanol, 100 U/ml penicillin, 100 μg/ml streptomycin and 2 mM Glutamax (ThermoFisher Scientific) for the indicated durations. In selected experiments, cells were stimulated in the presence of inhibitors, namely TCF1i (ICG-001; SelleckChem; 10 μM) and PGC-1αi (SR-18292, Sigma-Aldrich; 10 μm,). For subsequent analysis, activating beads were magnetically removed prior antibody staining. For human T cells, peripheral blood mononuclear cells were purified with a Ficoll-Paque (GE healthcare) gradient. T cells were enriched with EasySep Human T Cell Isolation Kit (StemCell) and activated with dynabead Human T-Activator CD3/CD28 for T Cell Expansion and Activation Kit (11131D; ThermoFisher Scientific), similar to murine T cell stimulation. […]
For flow cytometric analysis of mitochondria and lysosomes 500 μl of Mitotracker Red (200 nM; ThermoFisher) or Lysotracker Red DND-99 (75 nM; ThermoFisher) were applied followed by surface staining. To study changes in mitochondrial membrane potential, Mitoprobe TMRM kit (ThermoFisher) was used according to the manufacturer's instructions. Cell proliferation was assessed by CellTrace Violet (Invitrogen, C34557) at a concentration of 5 μM according to manufacturer's instructions. For human samples, cells were stained as described above with Fixable Viability Dye-eF780, αCD95-BV421 (DX2; 562616), αCD62L-PE (DREG-56; 555544), αCCR7-AF700 (150503; 561143), αCD45RO-APC (UCHL; 559865), αCD45RA-FITC (HI100; 555488), αCD8-PE-CF594 (RPA-T8; 562282) and αCD4-BV786 (OKT4; 566806) from BD.

CD19-CAR T cells = type: cell-based, human
[1] = 48 hours in presence of UA, prior to ACT
[2] = CD62L+CD44-CD8+ T cells, 48 h, UA 25 μM

SMILES: O=c1oc2cc(O)ccc2c2ccc(O)cc12 [UA, Urolithin A]
- TSCM formation, dependence on T cell activation (Splenic murine T cells): only formed in activated T cells
- cyclin D1 expression (Splenic murine T cells): reduced
- lysosome formation in CD8+ T cells (Splenic murine T cells; 6 h, UA 50 μM): enhanced
- loss of mitochondrial content in T cell subsets (TSCM, TCM and TEFF) (Splenic murine T cells; 24 h): detected in all T cell subsets analyzed
- number of CD44-CD62L+Sca1hi TSCM (Splenic murine T cells; 24 h, 48 h and 72 h after aCD3/aCD28 stimulation): significantly increased
- CD95 expression of CD8+ T cells from OT-1 donors (Splenic murine T cells; [1]): enhanced
- TSCM phenotype of CD8+ T cells from OT-1 donors (Splenic murine T cells; [1]): displayed a TSCM phenotype
- TSCM formation in CD4+ cells (Splenic murine T cells; CD4+ cells): did not promote enhanced TSCM formation
- frequency of TEM cells in CD4+ cells (Splenic murine T cells; CD4+ cells, later timepoints): enhanced frequency
- naïve-like CD4+ cells (Splenic murine T cells; CD4+ cells, later timepoints): less
- CD95 expression of TSCM (Splenic murine T cells; [2]): increased
- mitochondrial membrane potential of TSCM (TMRM) (Splenic murine T cells; [2]): reduced
- CD8+ T cell division (Splenic murine T cells; CellTrace Violet): restricted
- differentiation into effector T cells (Granzyme B, IFNg expression) (Splenic murine T cells; T cells from FVB mice, aCD3/aCD28 beads, 48 h, UA vs DMSO): blocked
- central memory cells (TCM) (Splenic murine T cells; aCD3/aCD28, up to 72 hours): reduction
- frequency of effector memory cells (TEM) (Splenic murine T cells; aCD3/aCD28, up to 72 hours): remained unaltered
- naïve CD44loCD62Lhi T cells (Splenic murine T cells; aCD3/aCD28, up to 72 hours): significant increase
- mitochondrial content (MitoTracker Red) in CD8+ T cells (Splenic murine T cells; after 24 hours): loss of mitochondrial content in a dose-dependent manner
- T cell death in vitro (Splenic murine T cells; in vitro): dose-dependent T cell death
- PGC-1 expression in CD8+ T cells (Splenic murine T cells; prolonged UA administration in vitro, 48 h, 50 μM): marked upregulation
- mitochondrial membrane potential in CD8+ T cells (Splenic murine T cells; within six hours, UA 50 μM): reduction
- gene delivery into CD8+ cells (CD19-CAR T cells): did not impair
- Markers of exhaustion of CAR T cells (CD19-CAR T cells; UA supplementation): not affected
- CAR expressing TSCM cells (CD19-CAR T cells; three days post transduction, UA vs DMSO): markedly increased
- CAR expressing TSCM cells, share of CD8+ cells (CD19-CAR T cells; three days post transduction, upon UA exposure): about 60%
